The source made the active and inactive calls.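 The calls were made as follows: active = IC50 below 100 µM in the TR-FRET assay, unless also active in the caspase-3 counter assay; inactive = the rest, including compounds also active in caspase-3.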

In this assay the target is Caspase-3 (Homo sapiens) (UniProt P42574). Nature of the assay: caspase-3 inhibitors as false-positive filter, SAR follow-up, counter-screen for UBC13 polyubiquitin inhibitor project, biochemical, luminescence, Caspase-Glo 3/7 (AID 504680). Conditions: recombinant caspase-3, Caspase-Glo luminescence, 60 min. A general note: A counterscreen serves to expose hits that act by an unwanted route or on another target.
Sequence of Caspase-3 (Homo sapiens) (P42574 whole entry, looked up): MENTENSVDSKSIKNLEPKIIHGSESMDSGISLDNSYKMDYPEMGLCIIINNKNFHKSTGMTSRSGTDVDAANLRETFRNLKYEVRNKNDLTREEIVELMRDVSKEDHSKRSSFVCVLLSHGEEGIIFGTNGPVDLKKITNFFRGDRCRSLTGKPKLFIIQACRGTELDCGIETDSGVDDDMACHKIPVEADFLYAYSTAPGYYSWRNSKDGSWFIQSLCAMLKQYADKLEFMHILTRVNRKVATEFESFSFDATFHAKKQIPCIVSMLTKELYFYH
With `O=C(CCCn1c(=O)c2ccccc2n(Cc2ccccc2F)c1=O)NC1CCN(Cc2ccccc2)CC1`, the IC50 (commonly the concentration needed to halve the response being measured) is > 100 µM (inactive).
Consider `Cc1cc(C)cc(OCCNC(=O)CCCCCN2C(=O)c3ccccc3C2=O)c1`, for which the IC50 was > 100 µM (inactive).
In the case of `O=C(CCCCCN1C(=O)c2ccccc2C1=O)Nc1ccc(S(=O)(=O)N2CCCCC2)cc1`, the IC50 is > 100 µM (inactive).
In the case of `COc1cccc(OCC(O)CN2CCN(CCN3C(=O)c4cccc5cccc(c45)C3=O)CC2)c1` (centres undefined), the IC50 was > 100 µM (inactive).
In the case of `O=C(CCCCCN1C(=O)c2ccccc2C1=O)Nc1nc(C2CC2)cs1`, the IC50 was > 100 µM (inactive).
As to `O=C(C1CCN(c2ncnc3c2nc2n3CCCCC2)CC1)N1CCN(c2ccccc2)CC1`, the IC50 is > 100 µM (inactive).
The figure for `O=C(c1ccc(S(=O)(=O)N2CCCC2)cc1)N1CCC(CN2C(=O)c3cccc4cccc(c34)C2=O)CC1` is > 100 µM (inactive); for `CCN(Cc1ccccc1)S(=O)(=O)c1ccc(C(=O)N(CCCN(C)C)c2nc3cc4c(cc3s2)OCO4)cc1` it is > 100 µM (inactive); for `CNCc1cc(Br)c(OCC(=O)Nc2ccccc2OC)c(OC)c1` it is > 100 µM (inactive).
In the case of `Cc1cc(OCC(O)CN2CCN(CCN3C(=O)c4cccc5cccc(c45)C3=O)CC2)ccc1C(C)C` (centres undefined) it was > 100 µM (inactive).
The figure for `O=C(NCC1CCN(Cc2ccc(F)cc2)CC1)C1CCCN(c2ncnc3c2nc2n3CCCCC2)C1` (centres undefined) is > 100 µM (inactive).
For `CN(C)CCCN(C(=O)c1ccc(S(=O)(=O)N2CCCCCC2)cc1)c1nc2ccc(Br)cc2s1`, the IC50 was > 100 µM (inactive).
In the case of `CC(=O)c1ccccc1OCC(O)CN1CCN(CCN2C(=O)c3cccc4cccc(c34)C2=O)CC1` (centres undefined), the IC50 was > 100 µM (inactive).
In the case of `Cc1[nH]c2c(Cl)c(Cl)ccc2c1CCNC(=O)CCCCCN1C(=O)c2ccccc2C1=O` it was > 100 µM (inactive); in that of `Cc1ccc2c(c1)C1CN(C)CCC1N2C(=O)CCCN1C(=O)c2cccc3cccc(c23)C1=O` (centres undefined), > 100 µM (inactive); in that of `Cc1cc(NS(=O)(=O)c2ccc(NC(=O)CCCCCN3C(=O)c4ccccc4C3=O)cc2)nc(C)n1`, > 100 µM (inactive).
The figure for `O=C(CCCCCN1C(=O)c2cccc3cccc(c23)C1=O)NCCO` is > 100 µM (inactive); for `O=C(CCCCCN1C(=O)c2ccccc2C1=O)Nc1ccc(S(=O)(=O)Nc2ncccn2)cc1` it is > 100 µM (inactive); for `COc1ccc2sc(N(CCCN(C)C)C(=O)c3ccc(S(=O)(=O)N4CCc5ccccc5C4)cc3)nc2c1` it is > 100 µM (inactive).
As for `CC1CCCC(C)N1CCCNC(=O)C1CCCN(c2ncnc3c2nc2n3CCCCC2)C1` (centres undefined), the IC50 was > 100 µM (inactive).
Take `CC(C)(C)c1ccc(OCC(O)CN2CCN(CCN3C(=O)c4cccc5cccc(c45)C3=O)CC2)cc1` (centres undefined): the IC50 is > 100 µM (inactive).
In the case of `O=C(C1CCN(c2ncnc3c2nc2n3CCCCC2)CC1)N1CCN(c2ccccn2)CC1` it was > 100 µM (inactive); in that of `O=C(CCCCCN1C(=O)c2ccccc2C1=O)N1CCN(c2ccc([N+](=O)[O-])cc2)CC1`, > 100 µM (inactive); in that of `O=C1c2cccc3cccc(c23)N1Cc1ccc(F)cc1`, > 100 µM (inactive).
In the case of `Cc1cc(NC(=O)Cn2c(=O)n(CCCCC(=O)NC3CCN(Cc4ccccc4)CC3)c(=O)c3ccccc32)n[nH]1` it was > 100 µM (inactive); in that of `O=C1c2cccc3cccc(c23)C(=O)N1CC1CCN(CC(O)COc2ccc3ccccc3c2)CC1` (centres undefined), > 100 µM (inactive); in that of `Cc1ccc2nc(N(CCCN(C)C)C(=O)c3ccc(S(=O)(=O)N4CCc5ccccc5C4)cc3)sc2c1`, > 100 µM (inactive).
In the case of `Cc1ccc(NC(=O)C2CCN(c3ncnc4c3nc3n4CCCCC3)CC2)cc1Cl` it was > 100 µM (inactive).
For `Cc1cc(C)c2sc(N(CCCN(C)C)C(=O)c3ccc(S(=O)(=O)N(C)Cc4ccccc4)cc3)nc2c1`, the IC50 was > 100 µM (inactive).
The figure for `Cc1ccccc1NC(=S)NC(=O)CCCCCN1C(=O)c2ccccc2C1=O` is > 100 µM (inactive); for `CN(C)CCCn1c(SCC(=O)Nc2nc(-c3cccc(Br)c3)cs2)nc2ccccc2c1=O` it is > 100 µM (inactive); for `CCN(Cc1ccccc1)S(=O)(=O)c1ccc(C(=O)N(CCCN(C)C)c2nc3cc(C)cc(C)c3s2)cc1` it is > 100 µM (inactive).
As for `C=CCc1ccccc1OCC(O)CN1CCN(CCN2C(=O)c3cccc4cccc(c34)C2=O)CC1` (centres undefined), the IC50 is > 100 µM (inactive).
The figure for `Cc1cccc(OCC(O)CN2CCN(CCN3C(=O)c4cccc5cccc(c45)C3=O)CC2)c1C` (centres undefined) is > 100 µM (inactive); for `COc1cccc(NC(=O)CCCCCN2C(=O)c3cccc([N+](=O)[O-])c3C2=O)c1` it is > 100 µM (inactive).
In the case of `CN(CCNC(=O)C1CCN(c2ncnc3c2nc2n3CCCCC2)CC1)Cc1ccccc1` it was > 100 µM (inactive).
In the case of `CCOc1cccc2sc(N(CCCN(C)C)C(=O)c3ccc(S(=O)(=O)N(C)Cc4ccccc4)cc3)nc12`, the IC50 is > 100 µM (inactive).
For `COc1cc2nc(N(CCCN(C)C)C(=O)c3ccc(S(=O)(=O)N4CCc5ccccc5C4)cc3)sc2cc1OC`, the IC50 was > 100 µM (inactive).
In the case of `O=C(CCCCCN1C(=O)c2cccc([N+](=O)[O-])c2C1=O)NCc1ccccc1` it was > 100 µM (inactive); in that of `CCN(Cc1ccccc1)S(=O)(=O)c1ccc(C(=O)N(CCCN(C)C)c2nc3cc4c(cc3s2)OCCO4)cc1`, > 100 µM (inactive).
Turning to `O=C(CCCCCN1C(=O)c2ccccc2C1=O)NCc1ccco1`, the IC50 was > 100 µM (inactive).
The figure for `Cc1ccccc1OCC(O)CN1CCN(CCN2C(=O)c3cccc4cccc(c34)C2=O)CC1` (centres undefined) is > 100 µM (inactive); for `O=C(NCC1CCN(Cc2cccc(Cl)c2)CC1)C1CCCN(c2ncnc3c2nc2n3CCCCC2)C1` (centres undefined) it is > 100 µM (inactive); for `CCCCN(CC)S(=O)(=O)c1ccc(C(=O)N(CCCN(C)C)c2nc3cc(C)cc(C)c3s2)cc1` it is > 100 µM (inactive).
In the case of `COc1ccc(CCNC(=O)CCCCCN2C(=O)c3ccccc3C2=O)cc1OC`, the IC50 was > 100 µM (inactive).
The figure for `O=C(NCC1CCN(Cc2ccccc2F)CC1)C1CCCN(c2ncnc3c2nc2n3CCCCC2)C1` (centres undefined) is > 100 µM (inactive); for `COc1ccc(OC)c2sc(N(CCCN(C)C)C(=O)c3ccc(S(=O)(=O)N4CCc5ccccc5C4)cc3)nc12` it is > 100 µM (inactive); for `COCCOC(=O)c1ccc(NC(=O)CCCCCN2C(=O)c3ccccc3C2=O)cc1` it is > 100 µM (inactive).
Consider `O=C(CCCCn1c(=O)c2ccccc2n(Cc2ccccc2)c1=O)NC1CCN(Cc2ccccc2)CC1`, for which the IC50 was > 100 µM (inactive).
Consider `CN(C)CCCN(C(=O)c1ccc(C(=O)c2ccccc2)cc1)c1nc2cc3c(cc2s1)OCO3`, for which the IC50 was > 100 µM (inactive).
The figure for `Cc1nc2ccccc2c(=O)n1NC(=O)c1ccc(OC(F)F)cc1` is > 100 µM (inactive).
In the case of `CCOc1cccc2sc(N(CCCN(C)C)C(=O)c3ccc(S(=O)(=O)N4CCc5ccccc5C4)cc3)nc12` it was > 100 µM (inactive).
Turning to `COc1ccc(CCNC(=O)CCCCCN2C(=O)c3ccccc3C2=O)cc1`, the IC50 was > 100 µM (inactive).
In the case of `CC1CN(S(=O)(=O)c2ccc(NC(=O)CCCCCN3C(=O)c4ccccc4C3=O)cc2)CC(C)O1` (centres undefined) it was > 100 µM (inactive).
Turning to `CCc1ccc(OCC(O)CN2CCC(CN3C(=O)c4cccc5cccc(c45)C3=O)CC2)cc1` (centres undefined), the IC50 was > 100 µM (inactive).
The figure for `O=C1c2cccc3cccc(c23)C(=O)N1CCN1CCN(CC(O)COc2ccc3c(c2)OCO3)CC1` (centres undefined) is > 100 µM (inactive).
Turning to `CCc1ccc2nc(N(CCCN(C)C)C(=O)c3ccc(S(=O)(=O)N4CCc5ccccc5C4)cc3)sc2c1`, the IC50 was > 100 µM (inactive).
The figure for `CC(=O)Nc1ccc(OCC(O)CN2CCN(CCN3C(=O)c4cccc5cccc(c45)C3=O)CC2)cc1` (centres undefined) is > 100 µM (inactive); for `CCOc1ccc2nc(N(CCCN(C)C)C(=O)c3ccc(S(=O)(=O)N4CCc5ccccc5C4)cc3)sc2c1` it is > 100 µM (inactive); for `COc1ccc(NC(=O)CCCCCN2C(=O)c3cccc([N+](=O)[O-])c3C2=O)cc1` it is > 100 µM (inactive).
Regarding `O=C(CCCCCN1C(=O)c2ccccc2C1=O)NCCc1nc2ccccc2[nH]1`, the IC50 was > 100 µM (inactive).
In the case of `CCOc1ccc(NC(=O)Cn2c(=O)n(CCCC(=O)NC3CCN(Cc4ccccc4)CC3)c(=O)c3ccccc32)cc1` it was > 100 µM (inactive).
With `CCOc1ccc2nc(N(CCCN(C)C)C(=O)c3ccc(C(=O)c4ccccc4)cc3)sc2c1`, the IC50 was > 100 µM (inactive).
For the molecule `CC1CCCCN1C(=O)C1CCN(c2ncnc3c2nc2n3CCCCC2)CC1` (centres undefined), the IC50 was > 100 µM (inactive).
In the case of `Cc1cccc(C)c1NC(=O)Cn1c(=O)n(CCCC(=O)NC2CCN(Cc3ccccc3)CC2)c(=O)c2ccccc21` it was > 100 µM (inactive).
In the case of `CCC1CCCCN1CCCNC(=O)C1CCN(c2ncnc3c2nc2n3CCCCC2)CC1` (centres undefined) it was > 100 µM (inactive).
In the case of `CC1CC(C)CN(C(=O)C2CCN(c3ncnc4c3nc3n4CCCCC3)CC2)C1` (centres undefined) it was > 100 µM (inactive); in that of `O=C(NCCCN1CCCCC1)C1CCN(c2ncnc3c2nc2n3CCCCC2)CC1`, > 100 µM (inactive); in that of `NNC(=O)c1ccc(CN2C(=O)c3cccc4cccc2c34)cc1`, > 100 µM (inactive).
`Cc1ccc2nc(N(CCCN(C)C)C(=O)c3ccc4c(c3)CCCC4)sc2c1`: the IC50 is > 100 µM (inactive).
With `CN(C)CCCN(C(=O)c1ccc(S(=O)(=O)N(C)Cc2ccccc2)cc1)c1nc2cc3c(cc2s1)OCO3`, the IC50 is > 100 µM (inactive).
The figure for `COC(=O)c1ccc(OCC(O)CN2CCN(CCN3C(=O)c4cccc5cccc(c45)C3=O)CC2)cc1` (centres undefined) is > 100 µM (inactive).
Consider `Cc1ccc(-c2oc3ncnc(N)c3c2-c2ccc(C)cc2)cc1`, for which the IC50 was > 100 µM (inactive).
Turning to `O=C(CCCCn1c(=O)c2ccccc2n(Cc2ccccc2F)c1=O)NC1CCN(Cc2ccccc2)CC1`, the IC50 is > 100 µM (inactive).

For the origin of these results see PubChem BioAssay AID504680 (Sanford-Burnham Center for Chemical Genomics, 2011).
